Test results reported in ChEMBL document CHEMBL4400584, “Relative Configurational Assignment of 4-Hydroxyprorocentrolide and Prorocentrolide C Isolated from a Benthic Dinoflagellate ( Prorocentrum lima)” (J Nat Prod, 2019).
pIC50: −log10 of the molar value.

What was measured:
Assay type in all cases: functional, cell-based
[1] = tested on: HCT-116; experiment: Cytotoxicity against human HCT116 cells assessed as reduction in cell viability after 48 hrs by MTT assay; conditions: HCT-116, 48 h
[2] = tested on: N2a; experiment: Cytotoxicity against mouse Neuro2a cells assessed as reduction in cell viability after 48 hrs by MTT assay
[3] = tested on: HepG2; experiment: Cytotoxicity against human HepG2 cells assessed as reduction in cell viability after 48 hrs by MTT assay; conditions: HepG2, 48 h

SMILES	pIC50 [1]	pIC50 [2]	pIC50 [3]
C=C1CC/C=C/[C@@H](O)[C@H](O)C[C@H](O)CC2=C[C@@H]3/C(C)=C/C[C@@H](C)C[C@@H](/C=C(\C)[C@@H](O)[C@@H]4C[C@@H](O)[C@H](O)[C@@H](CC[C@H](O)/C=C/C(C)=C/CCC5=NCC[C@H](C2)[C@@]53C)O4)OC(=O)C[C@@H]2O[C@H]([C@@H](O)[C@H]2O)[C@@H](O)C1	5.66	5.28	< 4.30
C=C1CCC[C@H]2O[C@H](CC3=C[C@@H]4/C(C)=C/C[C@@H](C)C[C@@H](/C=C(\C)[C@@H](O)[C@@H]5C[C@@H](O)[C@H](O)[C@@H](CC[C@H](O)/C=C/C(C)=C/CCC6=NCC[C@H](C3)[C@@]64C)O5)OC(=O)C[C@@H]3O[C@H]([C@@H](O)[C@H]3O)[C@@H](O)C1)C[C@@H](O)[C@@H]2O	< 5.00	< 5.00	< 5.00
